These results are taken from patent US20230310413A1, “PHARMACEUTICAL FORMULATIONS COMPRISING A MALT1 INHIBITOR AND A MIXTURE OF POLYETHYLENE GLYCOL WITH A FATTY ACID” (JANSSEN PHARMACEUTICA NV, priority 2020, published 2023).

Like-named read-outs stand apart in the source and are kept apart here.

The data set can be described thus: Pharmacokinetics of Compound A after single oral administration at 200 mg in fasted and fed dogs. The data set is classed as in vivo, male beagle dogs. To be noted: 200 mg oral dose; for AUC(0-t) / Tmax / half-life / Cmax: male, po, 200 mg; for Tmax: median; for half-life: N = 2, poor linear regression; for Cmax: Gelucire 50/13 size 00 hard gelatin capsule, N=3. As to the method: Example 8: Pharmacokinetics of Compound a after Single Oral Administration at 200 Mg in Fasted and Fed Dogs
A pharmacokinetic (PK) study was carried out using a Compound A stearoyl polyoxy-32 glycerides formulation.
A formulation of compound A and stearoyl polyoxy-32 glycerides (Gelucire® 50/13) in size 00 hard gelatin capsules (200 mg dose per capsule), according to Table 3, was administered orally to male beagle dogs (N=3) in a fasted state as well as a fed state.

Where [1] appears, read: beagle, dog, plasma, fasted male dogs, Gelucire 50/13 hard gelatin capsule.
Setting [2] is: beagle, dog, plasma, fed male dogs, Gelucire 50/13 hard gelatin capsule.

A word on the AUC(0-inf): it is total exposure, with the tail of the curve extrapolated. High values mean high exposure, low ones low exposure. Broadly, the Tmax is the time at which the peak concentration occurs. For orientation: half-life means the time in which the quantity being followed falls by half. A lower half-life goes with rapid decline. A word on the Cmax: it is the highest concentration seen after dosing. With `O=C(Nc1ccnc(C(F)(F)F)c1)c1cnn(-c2cccc3c(=O)[nH]ccc23)c1C(F)(F)F` [Compound A, 1-(1-oxo-1,2-dihydroisoquinolin-5-yl)-5-(trifluoromethyl)-N-(2-(trifluoromethyl)pyridin-4-yl)-1H-pyrazole-4-carboxamide], the AUC(0-inf) (beagle, dog, plasma, fasted male dogs, Gelucire 50/13 hard gelatin capsule, mean) was 578 µg·h/mL. Also, for the setting “fed male dogs, fasted group as reference”, the “Fed vs Fasted” value turned out to be 1.3. The AUC(0-t) reads like this: (beagle, dog, plasma, fasted male dogs, Gelucire 50/13 hard gelatin capsule, mean, read-out: AUC0-24 h) 246 µg·h/mL; (beagle, dog, plasma, fasted male dogs, Gelucire 50/13 hard gelatin capsule, mean, read-out: AUC0-96 h) 521 µg·h/mL; (beagle, dog, plasma, fed male dogs, Gelucire 50/13 hard gelatin capsule, mean, read-out: AUC0-24 h) 121 µg·h/mL; (beagle, dog, plasma, fed male dogs, Gelucire 50/13 hard gelatin capsule, mean, read-out: AUC0-96 h) 502 µg·h/mL. Further, the time of peak concentration (Tmax) reads like this: under setting [1], 2 h; under setting [2], 24 h. The half-life reads like this: under setting [1], 30 h; under setting [2], 34 h. In addition, the Cmax is, setting by setting: (beagle, dog, plasma, fasted male dogs, mean) 16000 ng/mL; (beagle, dog, plasma, fed male dogs, mean) 9330 ng/mL.
